IC50 data for eight compounds are collected here from BindingDB's records for doi:10.1111/cbdd.12324 (Y.B. Chavan College of Pharmacy, 2014).

Assay [1] deals with T1, Prostaglandin G/H synthase 1 (Ovis aries, UniProt P05979).
T1 sequence (P05979 whole entry): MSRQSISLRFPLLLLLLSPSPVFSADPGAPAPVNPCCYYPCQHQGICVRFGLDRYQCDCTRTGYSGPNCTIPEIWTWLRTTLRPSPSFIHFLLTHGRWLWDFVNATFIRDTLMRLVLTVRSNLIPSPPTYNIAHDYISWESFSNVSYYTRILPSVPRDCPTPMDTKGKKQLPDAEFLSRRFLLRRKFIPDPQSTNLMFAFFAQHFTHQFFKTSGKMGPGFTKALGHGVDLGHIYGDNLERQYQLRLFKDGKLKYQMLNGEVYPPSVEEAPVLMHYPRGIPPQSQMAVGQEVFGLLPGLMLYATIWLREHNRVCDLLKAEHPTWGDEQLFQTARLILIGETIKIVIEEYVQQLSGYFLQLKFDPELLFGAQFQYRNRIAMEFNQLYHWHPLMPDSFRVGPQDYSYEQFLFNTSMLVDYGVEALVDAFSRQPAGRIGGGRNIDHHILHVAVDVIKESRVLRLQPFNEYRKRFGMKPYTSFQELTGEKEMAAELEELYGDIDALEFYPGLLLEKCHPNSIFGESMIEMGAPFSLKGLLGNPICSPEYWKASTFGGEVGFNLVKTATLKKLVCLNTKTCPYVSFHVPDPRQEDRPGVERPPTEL
In words: Cyclooxygenase (COX) Inhibition Assay. The following applies: 37 °C. On the procedure:
(§1) The COX-1/COX-2 inhibition assay was done using an enzyme immunoassay (EIA) kit. The reaction buffer (960 uL), containing 0.1 M Tris-HCl (pH 8.0), 5 mM EDTA and 2 mM phenol, with either COX-1 or COX-2 (10 uL) enzyme in the presence of heme (10 uL) was added 10 uL of various concentrations of test drug solutions (0.01, 0.1, 1, 10, 50, and 100 uM in a final volume of 1 mL). The reaction was incubated for 5 min at 37 uC, followed by the addition of 10 uL of AA (100 uM) solution. The reaction was stopped by the addition of 50 uL of 1M HCl after 2 min.

Assay [2] addresses T2, Prostaglandin G/H synthase 2 (Ovis aries, UniProt P79208).
T2 sequence (P79208 whole entry): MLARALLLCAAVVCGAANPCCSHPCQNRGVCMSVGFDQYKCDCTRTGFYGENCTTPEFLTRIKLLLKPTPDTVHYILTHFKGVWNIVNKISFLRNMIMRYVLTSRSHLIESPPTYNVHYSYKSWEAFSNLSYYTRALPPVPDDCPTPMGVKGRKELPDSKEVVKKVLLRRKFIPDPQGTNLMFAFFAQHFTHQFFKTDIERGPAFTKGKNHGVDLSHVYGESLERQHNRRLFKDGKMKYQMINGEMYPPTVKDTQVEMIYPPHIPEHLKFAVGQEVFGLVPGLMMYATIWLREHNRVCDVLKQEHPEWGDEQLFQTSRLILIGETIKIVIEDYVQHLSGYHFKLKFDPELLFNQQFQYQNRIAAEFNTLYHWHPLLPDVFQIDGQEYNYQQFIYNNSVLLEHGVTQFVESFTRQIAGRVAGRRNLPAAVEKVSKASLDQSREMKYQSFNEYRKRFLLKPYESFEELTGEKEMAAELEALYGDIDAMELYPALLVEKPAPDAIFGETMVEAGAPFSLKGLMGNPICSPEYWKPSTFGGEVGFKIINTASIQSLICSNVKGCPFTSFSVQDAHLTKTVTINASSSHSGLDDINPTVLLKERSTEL
In words: Cyclooxygenase (COX) Inhibition Assay. The following applies: 37 °C. On the procedure: as §1

For `Cc1[nH]n(-c2ccccc2)c(=O)c1CNC(=O)Nc1ccc(Cl)cc1` [1-(4-chlorophenyl)-3-[(3-methyl-5-oxo-1-phenyl-4,5-dihydro-1H-pyrazol-4-yl)methyl]urea (5b)], the IC50 in assay [1] and in assay [2] was greater than 100 µM in each case.

As for `Cc1[nH]n(-c2ccccc2)c(=O)c1CN=C(N)N` [1-((3-methyl-5-oxo-1-phenyl-4,5-dihydro-1H-pyrazol-4-yl)methyl)guanidine (5e)], the IC50 (usually the concentration needed to halve the response being measured) in assay [1] is greater than 100 µM; in assay [2], 50.7 µM.

Regarding `Cc1[nH]n(-c2ccccc2)c(=O)c1CNC(=S)Nc1ccccc1` [1-[(3-methyl-5-oxo-1-phenyl-4,5-dihydro-1H-pyrazol-4-yl)methyl]-3-phenylthiourea (5d)], the IC50 in assay [1] came out at 80 µM; in assay [2] it was 0.2 µM.

In the case of `Cc1[nH]n(-c2ccccc2)c(=O)c1CNC(N)=S` [1-[(3-methyl-5-oxo-1-phenyl-4,5-dihydro-1H-pyrazol-4-yl)methyl]thiourea (5c)], the IC50 in assay [1] is greater than 100 µM; in assay [2], 85 µM.

On to `Cc1[nH]n(-c2ccccc2)c(=O)c1CNC(N)=O` [1-[(3-methyl-5-oxo-1-phenyl-4,5-dihydro-1H-pyrazol-4-yl)methyl]urea (5a)], for which the IC50 in assay [1] was greater than 100 µM; in assay [2], 2.3 µM.

`Cc1[nH]n(-c2ccccc2)c(=O)c1CNc1ccc(S(N)(=O)=O)cc1` [4-{[(3-methyl-5-oxo-1-phenyl-4,5-dihydro-1H-pyrazol-4-yl)methyl]amino} benzene sulfonamide (5f)]: the IC50 in assay [1] is greater than 100 µM; in assay [2], 1 µM.

With `Cc1cc(=O)n(-c2ccccc2)[nH]1` [MLS000069602], the figures for the IC50 in assay [1] and in assay [2] were greater than 100 µM and 35 µM, respectively.

As to `Cc1[nH]n(-c2ccccc2)c(=O)c1CNC(=O)NN` [N-[(3-methyl-5-oxo-1-phenyl-4,5-dihydro-1H-pyrazol-4yl)methyl] hydrazine carboxamide (5g)], the IC50 in assay [1] and in assay [2] was greater than 100 µM in each case.
